This assay deals with human leukocytes (LTB4 production, calcium ionophore stimulated). In words: Human Leukocyte LTB4 Inhibition Assay. The assay is classed as cell-based. The following applies: LTB4 by ELISA, read-out: LTB4 HLA IC50. The protocol:
Human Leukocyte LTB4 Inhibition Assay
A non-limiting example of a human leukocyte inhibition assay is as follows; Blood was drawn from consenting human volunteers into heparanized tubes and 3% dextran 0.9% saline ⅓ rd volume added. After sedimentation of red blood cells a hypotonic lysis of remaining red blood cells was performed and leukocytes sedimented at 1200 rpm. The pellet was resuspended at 1.25×10^5 cells/ml and aliquoted into wells containing 1 μL 100% DMSO (vehicle) or 2.5 μL drug in 100% DMSO. Samples were incubated for 5 minutes at 37° C. and 2 μL calcium ionophore […] (from a 50 mM DMSO stock diluted just prior to the assay in Hanks balanced salt solution (Invitrogen)) to 1.25 mM) was added, solutions mixed and incubated for 30 minutes at 37° C. Samples were centrifuged at 1,200 rpm (−200×g) for 10 minutes at 4° C., plasma removed and a 1:4 dilution assayed for LTB4 concentration using ELISA (Assay Designs). Drug concentrations to achieve 50% inhibition (IC50's) of vehicle LTB4 were determined by nonlinear regression (Graphpad Prism) of % inhibition versus log drug concentration.

Like-named read-outs stand apart in the source and are kept apart here.

Turning to `CCC(O)(c1nnc(NCc2ccn3c(-c4ccc(F)cc4)c(C(N)=O)cc3c2)o1)C(F)(F)F` (single isomer, unassigned) [Compound 1-20, 3-(4-Fluoro-phenyl)-7-{[5-(1-hydroxy-1-trifluoromethyl-propyl)-[1,3,4]oxadiazol-2-ylamino]-methyl}-indolizine-2-carboxylic acid amide], the IC50 (Leukocyte) is below 300 nM.

For the compound `CCC(O)(c1cn(Cc2ccn3c(-c4ccnc(C)c4)c(C#N)cc3c2)nn1)C(F)(F)F` (centres unmarked) [Compound 1-65, 7-[4-(1-Hydroxy-1-trifluoromethyl-propyl)-[1,2,3]triazol-1-ylmethyl]-3-(2-methyl-pyridin-4-yl)-indolizine-2-carbonitrile], the IC50 (Leukocyte) was below 300 nM.

As to `CCOC(=O)c1cc2cc(CNc3nnc(C(O)(CC)C(F)(F)F)o3)ccn2c1-c1ccc(F)cc1` (centres unmarked) [Compound 1-11, 3-(4-Fluoro-phenyl)-7-{[5-(1-hydroxy-1-trifluoromethyl-propyl)-[1,3,4]oxadiazol-2-ylamino]-methyl}-indolizine-2-carboxylic acid ethyl ester], the IC50 (Leukocyte) is below 300 nM.

In the case of `CCOC(=O)c1cc2cc(Cn3cc(C(O)(CC)C(F)(F)F)nn3)ccn2c1-c1cnc2ccccc2c1` (centres unmarked) [Compound 1-52, 7-[4-(1-Hydroxy-1-trifluoromethyl-propyl) [1,2,3]triazol-1-ylmethyl]-3-quinolin-3-yl-indolizine-2-carboxylic acid ethyl ester], the IC50 (Leukocyte) was below 300 nM.

`CCC(OC(=O)c1ccc([N+](=O)[O-])cc1)(c1cn(Cc2ccn3c(-c4ccc(C)nc4)c(C(N)=O)cc3c2)nn1)C(F)(F)F` (single isomer, unassigned) [Compound 1-75, 4-Nitro-benzoic acid 1-{1-[2-carbamoyl-3-(6-methyl-pyridin-3-yl)-indolizin-7-ylmethyl]-1H-[1,2,3]triazol-4-yl}-1-trifluoromethyl-propyl ester]: for the setting “Leukocyte”, the IC50 is above 1000 nM.

With `CCC(O)(c1cn(Cc2ccn3c(-c4ccc(F)nc4)c(C(N)=O)cc3c2)nn1)C(F)(F)F` (centres unmarked) [Compound 1-31, 3-(6-Fluoro-pyridin-3-yl)-7-[4-(1-hydroxy-1-trifluoromethyl-propyl)-[1,2,3]triazol-1-ylmethyl]-indolizine-2-carboxylic acid amide], the IC50 (Leukocyte) is above 1000 nM.

As for `CCC(O)(c1nnc(NCc2ccn3c(-c4ccc(F)cc4)c(C(N)=O)cc3c2)o1)C(F)(F)F` (single isomer, unassigned) [Compound 1-21, 3-(4-Fluoro-phenyl)-7-{[5-(1-hydroxy-1-trifluoromethyl-propyl)-[1,3,4]oxadiazol-2-ylamino]-methyl}-indolizine-2-carboxylic acid amide], the IC50 was below 300 nM.

With `CCC(O)(c1cn(Cc2ccn3c(-c4ccc(C)nc4)c(C#N)cc3c2)nn1)C(F)(F)F` (centres unmarked) [Compound 1-72, 7-[4-(1-Hydroxy-1-trifluoromethyl-propyl)-[1,2,3]triazol-1-ylmethyl]-3-(6-methyl-pyridin-3-yl)-indolizine-2-carbonitrile], the IC50 (Leukocyte) is below 300 nM.

Turning to `CCC(O)(c1cn(Cc2ccn3c(-c4ccnc(C)c4)c(C#N)cc3c2)nn1)C(F)(F)F` (single isomer, unassigned) [Compound 1-80, 7-[4-(1-Hydroxy-1-trifluoromethyl-propyl)-[1,2,3]triazol-1-ylmethyl]-3-(2-methyl-pyridin-4-yl)-indolizine-2-carbonitrile], the half-inhibitory concentration (IC50) (Leukocyte) is below 300 nM.

For the compound `CCC(O)(c1cn(Cc2ccn3c(-c4ccc(OC)nc4)c(C(N)=O)cc3c2)nn1)C(F)(F)F` (single isomer, unassigned) [Compound 1-78, 7-[4-(1-Hydroxy-1-trifluoromethyl-propyl)-[1,2,3]triazol-1-ylmethyl]-3-(6-methoxy-pyridin-3-yl)-indolizine-2-carboxylic acid amide], the IC50 (Leukocyte) was below 300 nM.

As to `CCC(O)(c1cn(Cc2ccn3c(-c4ccc(OC)nc4)c(C(N)=O)c(C(=O)C(F)(F)F)c3c2)nn1)C(F)(F)F` (single isomer, unassigned) [Compound 1-82, 7-[4-(1-Hydroxy-1-trifluoromethyl-propyl)-[1,2,3]triazol-1-ylmethyl]-3-(6-methoxy-pyridin-3-yl)-1-(2,2,2-trifluoro-acetyl)-indolizine-2-carboxylic acid amide], the IC50 (Leukocyte) is above 1000 nM.

With `CCC(O)(c1cn(Cc2ccn3c(C(C)C)c(C#N)cc3c2)nn1)C(F)(F)F` (single isomer, unassigned) [Compound 1-81, 7-[4-(1-Hydroxy-1-trifluoromethyl-propyl)-[1,2,3]triazol-1-ylmethyl]-3-isopropyl-indolizine-2-carbonitrile], the IC50 (Leukocyte) was below 300 nM.

Take `CCC(O)(c1cn(Cc2ccn3c(-c4cccc(S(C)(=O)=O)c4)c(C#N)cc3c2)nn1)C(F)(F)F` (centres unmarked) [Compound 1-49, 7-[4-(1-Hydroxy-1-trifluoromethyl-propyl)-[1,2,3]triazol-1-ylmethyl]-3-(3-methanesulfonyl-phenyl)-indolizine-2-carbonitrile]: the IC50 (Leukocyte) was 300 to 1000 nM.

With `CCC(O)(c1cn(Cc2ccn3c(-c4ccc(F)cc4)c(C(N)=O)cc3c2)nn1)C(F)(F)F` (single isomer, unassigned) [Compound 1-9, 3-(4-Fluoro-phenyl)-7-[4-(1-hydroxy-1-trifluoromethyl-propyl)-[1,2,3]triazol-1-ylmethyl]-indolizine-2-carboxylic acid amide], under “Leukocyte”, the IC50 is below 300 nM.

`CCOC(=O)c1cc2cc(Cn3cc(C(O)(CC)C(F)(F)F)nn3)ccn2c1-c1ccc(F)cc1` (centres unmarked) [Compound 1-4, 3-(4-Fluoro-phenyl)-7-[4-(1-hydroxy-1-trifluoromethyl-propyl)-[1,2,3]triazol-1-ylmethyl]-indolizine-2-carboxylic acid ethyl ester]: the IC50 (Leukocyte) was below 300 nM.

For the compound `CCC(O)(c1cn(Cc2ccn3c(-c4cccnc4)c(C(N)=O)cc3c2)nn1)C(F)(F)F` (centres unmarked) [Compound 1-25, 7-[4-(1-Hydroxy-1-trifluoromethyl-propyl)-[1,2,3]triazol-1-ylmethyl]-3-pyridin-3-yl-indolizine-2-carboxylic acid amide], where the note is “Leukocyte”, the IC50 was above 1000 nM.

As for `CCC(O)(c1cn(Cc2ccn3c(-c4ccc(F)cc4)c(C#N)cc3c2)nn1)C(F)(F)F` (centres unmarked) [Compound 1-22, 3-(4-Fluoro-phenyl)-7-[4-(1-hydroxy-1-trifluoromethyl-propyl)-[1,2,3]triazol-1-ylmethyl]-indolizine-2-carbonitrile], the IC50 was below 300 nM.

For `CCOC(=O)c1cc2cc(Cn3cc(C(O)(CC)C(F)(F)F)nn3)ccn2c1-c1ccc(OC)nc1` (centres unmarked) [Compound 1-36, 7-[4-(1-Hydroxy-1-trifluoromethyl-propyl)-[1,2,3]triazol-1-ylmethyl]-3-(6-methoxy-pyridin-3-yl)-indolizine-2-carboxylic acid ethyl ester], for the setting “Leukocyte”, the IC50 is below 300 nM.

On to `CCC(O)(c1cn(Cc2ccn3c(-c4ccc(F)cc4)c(C(N)=O)c(Cl)c3c2)nn1)C(F)(F)F` (centres unmarked) [Compound 1-61, 1-Chloro-3-(4-fluoro-phenyl)-7-[4-(1-hydroxy-1-trifluoromethyl-propyl)-[1,2,3]triazol-1-ylmethyl]-indolizine-2-carboxylic acid amide], for which the IC50 (Leukocyte) was below 300 nM.

As for `CCC(O)(c1cn(Cc2ccn3c(Cl)c(C#N)cc3c2)nn1)C(F)(F)F` (single isomer, unassigned) [Compound 1-88, 3-Chloro-7-[4-(1-hydroxy-1-trifluoromethyl-propyl)-[1,2,3]triazol-1-ylmethyl]-indolizine-2-carbonitrile], the half-maximal inhibitory concentration (IC50) (Leukocyte) is below 300 nM.

With `CCC(O)(c1cn(Cc2ccn3c(-c4ccc(F)cc4)c(CO)cc3c2)nn1)C(F)(F)F` (centres unmarked) [Compound 1-30, 1,1,1-Trifluoro-2-{1-[3-(4-fluoro-phenyl)-2-hydroxymethyl-indolizin-7-ylmethyl]-1H-[1,2,3]triazol-4-yl}-butan-2-ol], where the note is “Leukocyte”, the IC50 was below 300 nM.

`CCC(O)(c1cn(Cc2ccn3c(-c4ccc(F)cc4)c(C=O)cc3c2)nn1)C(F)(F)F` (centres unmarked) [Compound 1-33, 3-(4-Fluoro-phenyl)-7-[4-(1-hydroxy-1-trifluoromethyl-propyl)-[1,2,3]triazol-1-ylmethyl]-indolizine-2-carbaldehyde]: the IC50 (Leukocyte) was below 300 nM.

On to `CCC(O)(c1cn(Cc2ccn3c(-c4ccnc(C)c4)c(C(N)=O)cc3c2)nn1)C(F)(F)F` (centres unmarked) [Compound 1-64, 7-[4-(1-Hydroxy-1-trifluoromethyl-propyl)-[1,2,3]triazol-1-ylmethyl]-3-(2-methyl-pyridin-4-yl)-indolizine-2-carboxylic acid amide], for which the IC50 (Leukocyte) was above 1000 nM.

As to `CCOC(=O)c1cc2cc(Cn3cc(C(O)(CC)C(F)(F)F)nn3)ccn2c1-c1ccc(=O)n(C)c1` (centres unmarked) [Compound 1-62, 7-[4-(1-Hydroxy-1-trifluoromethyl-propyl)-[1,2,3]triazol-1-ylmethyl]-3-(1-methyl-6-oxo-1,6-dihydro-pyridin-3-yl)-indolizine-2-carboxylic acid ethyl ester], the IC50 (Leukocyte) is 300 to 1000 nM.

As to `CCC(O)(c1cn(Cc2ccn3c(-c4ccc(=O)n(C)c4)c(C#N)cc3c2)nn1)C(F)(F)F` (centres unmarked) [Compound 1-70, 7-[4-(1-Hydroxy-1-trifluoromethyl-propyl)-[1,2,3]triazol-1-ylmethyl]-3-(1-methyl-6-oxo-1,6-dihydro-pyridin-3-yl)-indolizine-2-carbonitrile], the IC50 (Leukocyte) was above 1000 nM.

As for `CCC(O)(c1cnc(Sc2ccn3cc(C(=O)O)cc3c2)s1)C(F)(F)F` (centres unmarked) [Compound 1-2, 7-[5-(1-Hydroxy-1-trifluoromethyl-propyl)-thiazol-2-ylsulfanyl]-indolizine-2-carboxylic acid], the half-maximal inhibitory concentration (IC50) (Leukocyte) is above 1000 nM.

These data come from US20130005721A1, “INDOLIZINE INHIBITORS OF 5-LIPOXYGENASE” (PANMIRA PHARMACEUTICALS, LLC, priority 2009, published 2013).
